Laboratory results taken from PubChem BioAssay (NCI).
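Each compound was tested at five concentrations against cells in 96-well plates for 48 hours. TGI denotes the concentration required for complete inhibition of growth.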

Assays:
Assay in all cases: growth of human tumour cells (NCI), 48 h
SF-268 CNS = system: SF-268 CNS
OVCAR-8 ovarian = system: OVCAR-8 ovarian
RXF 393 renal = system: RXF 393 renal
HOP-62 NSCLC = system: HOP-62 NSCLC
786-0 renal = system: 786-0 renal
M14 melanoma = system: M14 melanoma
TK-10 renal = system: TK-10 renal
OVCAR-3 ovarian = system: OVCAR-3 ovarian
DMS 273 small cell lung = system: DMS 273 small cell lung
LOX IMVI melanoma = system: LOX IMVI melanoma
KM20L2 colon = system: KM20L2 colon
SK-MEL-2 melanoma = system: SK-MEL-2 melanoma
SNB-19 CNS = system: SNB-19 CNS
OVCAR-4 ovarian = system: OVCAR-4 ovarian
RXF-631 renal = system: RXF-631 renal
NCI-H23 lung = system: NCI-H23 lung
DLD-1 colon = system: DLD-1 colon
SK-OV-3 ovarian = system: SK-OV-3 ovarian
SF-539 CNS = system: SF-539 CNS
A549 NSCLC = system: A549 NSCLC
SK-MEL-28 melanoma = system: SK-MEL-28 melanoma
HOP-92 NSCLC = system: HOP-92 NSCLC
U251 CNS = system: U251 CNS
SW-620 colon = system: SW-620 colon
UACC-62 melanoma = system: UACC-62 melanoma
SN12C renal = system: SN12C renal
HCT-116 colon = system: HCT-116 colon
HOP-18 NSCLC = system: HOP-18 NSCLC
NCI-H460 lung = system: NCI-H460 lung
NCI-H226 lung = system: NCI-H226 lung
XF 498 CNS = system: XF 498 CNS
NCI-H522 lung = system: NCI-H522 lung
CCRF-CEM leukemia = system: CCRF-CEM leukemia
K-562 leukemia = system: K-562 leukemia
UACC-257 melanoma = system: UACC-257 melanoma
SF-295 CNS = system: SF-295 CNS
A498 renal = system: A498 renal
HCT-15 colon = system: HCT-15 colon
RPMI-8226 leukemia = system: RPMI-8226 leukemia
SK-MEL-5 melanoma = system: SK-MEL-5 melanoma
EKVX NSCLC = system: EKVX NSCLC
IGROV1 ovarian = system: IGROV1 ovarian
MOLT-4 leukemia = system: MOLT-4 leukemia
SNB-78 CNS = system: SNB-78 CNS
ACHN renal = system: ACHN renal
M19-MEL melanoma = system: M19-MEL melanoma
COLO 205 colon = system: COLO 205 colon
LXFL 529 NSCLC = system: LXFL 529 NSCLC
UO-31 renal = system: UO-31 renal
MALME-3M melanoma = system: MALME-3M melanoma
OVCAR-5 ovarian = system: OVCAR-5 ovarian
SNB-75 CNS = system: SNB-75 CNS
HT29 colon = system: HT29 colon
DMS 114 small cell lung = system: DMS 114 small cell lung
CAKI-1 renal = system: CAKI-1 renal
HCC-2998 colon = system: HCC-2998 colon
KM12 colon = system: KM12 colon
HL-60(TB) leukemia = system: HL-60(TB) leukemia
PC-3 prostate = system: PC-3 prostate
MCF7 breast = system: MCF7 breast
MDA-N = system: MDA-N
MDA-MB-435 = system: MDA-MB-435
HS 578T breast = system: HS 578T breast
NCI/ADR-RES ovarian = system: NCI/ADR-RES ovarian
MDA-MB-231 breast = system: MDA-MB-231 breast
DU-145 prostate = system: DU-145 prostate
SR leukemia = system: SR leukemia
BT-549 breast = system: BT-549 breast
T-47D breast = system: T-47D breast

SMILES: COC(=O)C1=CO[C@@H](C)[C@@H]2Cn3ccc4c5ccccc5nc-4c3C[C@H]12
- TGI (SF-268 CNS): > 100 µM
- TGI (OVCAR-8 ovarian): > 100 µM
- TGI (RXF 393 renal): > 100 µM
- TGI (HOP-62 NSCLC): > 100 µM
- TGI (786-0 renal): > 100 µM
- TGI (M14 melanoma): > 100 µM
- TGI (TK-10 renal): > 100 µM
- TGI (OVCAR-3 ovarian): > 100 µM
- TGI (DMS 273 small cell lung): > 100 µM
- TGI (LOX IMVI melanoma): > 100 µM
- TGI (KM20L2 colon): > 100 µM
- TGI (SK-MEL-2 melanoma): > 100 µM
- TGI (SNB-19 CNS): > 100 µM
- TGI (OVCAR-4 ovarian): > 100 µM
- TGI (RXF-631 renal): > 100 µM
- TGI (NCI-H23 lung): > 100 µM
- TGI (DLD-1 colon): > 100 µM
- TGI (SK-OV-3 ovarian): > 100 µM
- TGI (SF-539 CNS): > 100 µM
- TGI (A549 NSCLC): > 100 µM
- TGI (SK-MEL-28 melanoma): > 100 µM
- TGI (HOP-92 NSCLC): > 100 µM
- TGI (U251 CNS): > 100 µM
- TGI (SW-620 colon): > 100 µM
- TGI (UACC-62 melanoma): > 100 µM
- TGI (SN12C renal): > 100 µM
- TGI (HCT-116 colon): > 100 µM
- TGI (HOP-18 NSCLC): > 100 µM
- TGI (NCI-H460 lung): > 100 µM
- TGI (NCI-H226 lung): > 100 µM
- TGI (XF 498 CNS): > 100 µM
- TGI (NCI-H522 lung): > 100 µM
- TGI (CCRF-CEM leukemia): > 100 µM
- TGI (K-562 leukemia): > 100 µM
- TGI (UACC-257 melanoma): > 100 µM
- TGI (SF-295 CNS): > 100 µM
- TGI (A498 renal): > 100 µM
- TGI (HCT-15 colon): > 100 µM
- TGI (RPMI-8226 leukemia): > 100 µM
- TGI (SK-MEL-5 melanoma): > 100 µM
- TGI (EKVX NSCLC): > 100 µM
- TGI (IGROV1 ovarian): > 100 µM
- TGI (MOLT-4 leukemia): > 100 µM
- TGI (SNB-78 CNS): > 100 µM
- TGI (ACHN renal): > 100 µM
- TGI (M19-MEL melanoma): > 100 µM
- TGI (COLO 205 colon): > 100 µM
- TGI (LXFL 529 NSCLC): > 100 µM
- TGI (UO-31 renal): > 100 µM
- TGI (MALME-3M melanoma): > 100 µM
- TGI (OVCAR-5 ovarian): > 100 µM
- TGI (SNB-75 CNS): > 100 µM
- TGI (HT29 colon): > 100 µM
- TGI (DMS 114 small cell lung): > 100 µM

SMILES: CN(C)c1ccc(/C=c2\sc3nnc(-c4ccco4)n3c2=O)cc1
- TGI (SF-268 CNS): > 100 µM
- TGI (OVCAR-8 ovarian): > 100 µM
- TGI (RXF 393 renal): > 100 µM
- TGI (HOP-62 NSCLC): > 100 µM
- TGI (786-0 renal): > 100 µM
- TGI (M14 melanoma): > 100 µM
- TGI (TK-10 renal): > 100 µM
- TGI (OVCAR-3 ovarian): > 100 µM
- TGI (DMS 273 small cell lung): > 100 µM
- TGI (LOX IMVI melanoma): > 100 µM
- TGI (KM20L2 colon): > 100 µM
- TGI (SK-MEL-2 melanoma): > 100 µM
- TGI (SNB-19 CNS): > 100 µM
- TGI (OVCAR-4 ovarian): > 100 µM
- TGI (RXF-631 renal): > 100 µM
- TGI (NCI-H23 lung): > 100 µM
- TGI (DLD-1 colon): > 100 µM
- TGI (SK-OV-3 ovarian): > 100 µM
- TGI (SF-539 CNS): > 100 µM
- TGI (CAKI-1 renal): > 100 µM
- TGI (A549 NSCLC): > 100 µM
- TGI (SK-MEL-28 melanoma): > 100 µM
- TGI (HOP-92 NSCLC): > 100 µM
- TGI (U251 CNS): > 100 µM
- TGI (SW-620 colon): > 100 µM
- TGI (HCC-2998 colon): > 100 µM
- TGI (UACC-62 melanoma): > 100 µM
- TGI (SN12C renal): > 100 µM
- TGI (HCT-116 colon): > 100 µM
- TGI (HOP-18 NSCLC): > 100 µM
- TGI (NCI-H460 lung): > 100 µM
- TGI (NCI-H226 lung): > 100 µM
- TGI (XF 498 CNS): > 100 µM
- TGI (NCI-H522 lung): > 100 µM
- TGI (CCRF-CEM leukemia): > 100 µM
- TGI (K-562 leukemia): > 100 µM
- TGI (UACC-257 melanoma): > 100 µM
- TGI (SF-295 CNS): > 100 µM
- TGI (KM12 colon): > 100 µM
- TGI (A498 renal): > 100 µM
- TGI (RPMI-8226 leukemia): > 100 µM
- TGI (SK-MEL-5 melanoma): > 100 µM
- TGI (EKVX NSCLC): > 100 µM
- TGI (IGROV1 ovarian): > 100 µM
- TGI (HL-60(TB) leukemia): > 100 µM
- TGI (MOLT-4 leukemia): > 100 µM
- TGI (SNB-78 CNS): > 100 µM
- TGI (M19-MEL melanoma): > 100 µM
- TGI (COLO 205 colon): > 100 µM
- TGI (LXFL 529 NSCLC): > 100 µM
- TGI (UO-31 renal): > 100 µM
- TGI (MALME-3M melanoma): > 100 µM
- TGI (OVCAR-5 ovarian): > 100 µM
- TGI (SNB-75 CNS): > 100 µM
- TGI (DMS 114 small cell lung): > 100 µM

SMILES: O=C1C2CCN(CC2)C1CN1CCOCC1 (configuration not stated)
- TGI (SF-268 CNS): 34.3 µM
- TGI (OVCAR-8 ovarian): 13.6 µM
- TGI (RXF 393 renal): 5.33 µM
- TGI (HOP-62 NSCLC): 34 µM
- TGI (PC-3 prostate): 34.7 µM
- TGI (786-0 renal): 3.55 µM
- TGI (M14 melanoma): 6.46 µM
- TGI (TK-10 renal): 13.2 µM
- TGI (OVCAR-3 ovarian): 4.18 µM
- TGI (MCF7 breast): 10.8 µM
- TGI (DMS 273 small cell lung): 25.3 µM
- TGI (LOX IMVI melanoma): 12.1 µM
- TGI (KM20L2 colon): 37 µM
- TGI (MDA-N): 20.1 µM
- TGI (SK-MEL-2 melanoma): 32.5 µM
- TGI (MDA-MB-435): > 100 µM
- TGI (SNB-19 CNS): 32.6 µM
- TGI (OVCAR-4 ovarian): 10.7 µM
- TGI (RXF-631 renal): 31 µM
- TGI (NCI-H23 lung): 23.9 µM
- TGI (HS 578T breast): 82.1 µM
- TGI (DLD-1 colon): 3.18 µM
- TGI (SK-OV-3 ovarian): 31.7 µM
- TGI (SF-539 CNS): 29 µM
- TGI (CAKI-1 renal): 4.09 µM
- TGI (A549 NSCLC): 37.5 µM
- TGI (SK-MEL-28 melanoma): 10.6 µM
- TGI (HOP-92 NSCLC): 3.47 µM
- TGI (U251 CNS): 26.2 µM
- TGI (SW-620 colon): 3.2 µM
- TGI (HCC-2998 colon): 29.2 µM
- TGI (UACC-62 melanoma): 30.9 µM
- TGI (NCI/ADR-RES ovarian): 3.41 µM
- TGI (SN12C renal): 8.28 µM
- TGI (HCT-116 colon): 3.73 µM
- TGI (HOP-18 NSCLC): 15.8 µM
- TGI (NCI-H460 lung): 33.7 µM
- TGI (NCI-H226 lung): 26.5 µM
- TGI (XF 498 CNS): 14.5 µM
- TGI (NCI-H522 lung): 1.99 µM
- TGI (CCRF-CEM leukemia): > 23.8 µM
- TGI (K-562 leukemia): 20.3 µM
- TGI (UACC-257 melanoma): 10.2 µM
- TGI (MDA-MB-231 breast): 40.5 µM
- TGI (DU-145 prostate): 20.1 µM
- TGI (SF-295 CNS): 33.9 µM
- TGI (SR leukemia): 35.5 µM
- TGI (KM12 colon): 30.8 µM
- TGI (A498 renal): 31.2 µM
- TGI (HCT-15 colon): 4.94 µM
- TGI (RPMI-8226 leukemia): 13.7 µM
- TGI (SK-MEL-5 melanoma): 31 µM
- TGI (EKVX NSCLC): 33.8 µM
- TGI (IGROV1 ovarian): 38.4 µM
- TGI (HL-60(TB) leukemia): > 100 µM
- TGI (MOLT-4 leukemia): 13.8 µM
- TGI (SNB-78 CNS): 56.1 µM
- TGI (ACHN renal): 4.18 µM
- TGI (M19-MEL melanoma): 26.2 µM
- TGI (COLO 205 colon): 3.27 µM
- TGI (LXFL 529 NSCLC): 3.88 µM
- TGI (UO-31 renal): 7.14 µM
- TGI (MALME-3M melanoma): 3.28 µM
- TGI (OVCAR-5 ovarian): 13.5 µM
- TGI (BT-549 breast): 4.53 µM
- TGI (T-47D breast): 3.93 µM
- TGI (SNB-75 CNS): 36.2 µM
- TGI (HT29 colon): 16.9 µM
